Active and inactive are the calls of the source.
Experiments:
[1] = P. falciparum Dd2 growth inhibitors, dose response, SYBR Green, dry powder samples, set 9 (AID 1159568); type: functional, cell-based
[2] = half-maximal inhibitory concentration for glucagon-like peptide-1 release, STC-1 cell line, dose-response (AID 1117345); type: functional, cell-based
[3] = Glucagon-like peptide 1 release potency, NCI-H716 cell line, dose-response, half-maximal inhibitory concentration (AID 1117344); type: functional, cell-based
[4] = NIH:OVCAR-3 ovarian cancer cell cytotoxicity, dose response, PAX8 inhibitor project, plate reader, dry powder samples (AID 743044); type: functional, cell-based
[5] = cytotoxicity dependent on PAX8, dose response, cell-based, plate reader, dry powder (AID 743049); type: functional
[6] = cytotoxicity in OV-90 ovarian cancer cells, dose response, PAX8 inhibitor project, cell-based, plate reader, dry powder, SA8 (AID 743149); type: functional
[7] = PAX2 cell-based inhibition, dose response, selectivity assay for PAX8 inhibitor project, plate reader, dry powder samples (AID 743048); type: functional;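 note: HEK293 cells carrying a WT1 promoter luciferase reporter driven by expressed Pax2; potency is for inhibition of Pax2 driven reporter signal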
Paired box protein Pax-8 = Paired box protein Pax-8 (Homo sapiens, UniProt Q06710); assay: inhibitors of PAX8-driven TPO luciferase reporter, dose response, RMG-I cells, cherry-pick (AID 687027); type: functional, cell-based;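 note: luciferase reporter driven by Pax8 target thyroperoxidase promoter measured by SteadyGlo luminescence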
Sequence of Paired box protein Pax-8 (Q06710 whole entry): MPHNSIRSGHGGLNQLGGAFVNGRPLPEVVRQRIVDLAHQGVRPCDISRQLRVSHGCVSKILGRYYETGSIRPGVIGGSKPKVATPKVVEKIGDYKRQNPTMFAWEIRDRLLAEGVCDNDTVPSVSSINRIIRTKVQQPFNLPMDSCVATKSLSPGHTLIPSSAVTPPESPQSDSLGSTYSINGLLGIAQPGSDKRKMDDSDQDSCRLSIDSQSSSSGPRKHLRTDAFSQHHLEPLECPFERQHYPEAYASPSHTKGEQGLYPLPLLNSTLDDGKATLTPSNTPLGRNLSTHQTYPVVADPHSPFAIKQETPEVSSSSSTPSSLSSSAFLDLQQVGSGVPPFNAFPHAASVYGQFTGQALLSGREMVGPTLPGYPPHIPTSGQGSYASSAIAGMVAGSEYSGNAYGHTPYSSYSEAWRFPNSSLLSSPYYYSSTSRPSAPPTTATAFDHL

[8] = PAX5 activity inhibitors, dose response, selectivity assay for PAX8 inhibitor project, cell-based, plate reader, dry powder samples (AID 743047); type: functional;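 note: HEK293 cells carrying a Pax5 driven CD19 promoter luciferase reporter; potency of inhibitors that lower reporter luminescence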
[9] = cytotoxicity in COV362 ovarian cancer cells, dose response, cytotoxicity control for PAX8 inhibitor project, cell-based, plate reader, dry powder, SA12 (AID 743144); type: functional
[10] = cytotoxicity in COV434 cells, dose response, cytotoxicity control for PAX8 inhibitor project, cell-based, plate reader, dry powder, SA7 (AID 743145); type: functional
[11] = target: Endoplasmic reticulum aminopeptidase 1 (Homo sapiens, UniProt Q9NZ08); assay: ERAP1 aminopeptidase inhibitors, dose response, biochemical, cherry-pick, set 2, plate reader (AID 743314)
Sequence of Endoplasmic reticulum aminopeptidase 1 (Q9NZ08 whole entry): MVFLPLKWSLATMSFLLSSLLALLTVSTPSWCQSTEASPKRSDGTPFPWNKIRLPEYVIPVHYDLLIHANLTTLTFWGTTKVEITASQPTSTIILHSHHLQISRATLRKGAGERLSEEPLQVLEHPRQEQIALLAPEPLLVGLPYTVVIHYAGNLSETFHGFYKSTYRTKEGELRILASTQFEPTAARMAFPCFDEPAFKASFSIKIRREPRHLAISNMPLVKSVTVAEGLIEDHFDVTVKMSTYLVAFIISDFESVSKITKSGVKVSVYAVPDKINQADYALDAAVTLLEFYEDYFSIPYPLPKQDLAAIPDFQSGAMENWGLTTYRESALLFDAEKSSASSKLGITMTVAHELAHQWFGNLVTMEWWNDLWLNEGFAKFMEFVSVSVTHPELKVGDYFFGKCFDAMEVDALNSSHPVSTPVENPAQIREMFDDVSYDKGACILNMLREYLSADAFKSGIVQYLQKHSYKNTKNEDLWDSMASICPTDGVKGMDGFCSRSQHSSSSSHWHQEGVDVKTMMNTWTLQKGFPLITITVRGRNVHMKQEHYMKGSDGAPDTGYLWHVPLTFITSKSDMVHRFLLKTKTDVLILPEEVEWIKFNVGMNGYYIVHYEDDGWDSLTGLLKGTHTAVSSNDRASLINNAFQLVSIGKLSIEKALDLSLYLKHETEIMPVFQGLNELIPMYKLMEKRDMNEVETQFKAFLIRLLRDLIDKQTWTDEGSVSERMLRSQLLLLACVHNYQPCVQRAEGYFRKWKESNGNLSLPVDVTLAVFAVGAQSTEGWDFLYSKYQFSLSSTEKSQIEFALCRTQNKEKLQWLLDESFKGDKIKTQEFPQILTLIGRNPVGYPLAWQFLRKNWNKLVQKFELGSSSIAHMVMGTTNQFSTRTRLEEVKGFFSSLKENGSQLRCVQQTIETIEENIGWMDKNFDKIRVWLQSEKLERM

Estrogen receptor beta = Estrogen receptor beta (Homo sapiens, UniProt Q92731);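 note: recombinant ER-beta bound to coactivator SRC1 peptide in presence of estradiol agonist; inhibitors block coactivator peptide binding and lower the FRET signal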
Sequence of Estrogen receptor beta (Q92731 whole entry): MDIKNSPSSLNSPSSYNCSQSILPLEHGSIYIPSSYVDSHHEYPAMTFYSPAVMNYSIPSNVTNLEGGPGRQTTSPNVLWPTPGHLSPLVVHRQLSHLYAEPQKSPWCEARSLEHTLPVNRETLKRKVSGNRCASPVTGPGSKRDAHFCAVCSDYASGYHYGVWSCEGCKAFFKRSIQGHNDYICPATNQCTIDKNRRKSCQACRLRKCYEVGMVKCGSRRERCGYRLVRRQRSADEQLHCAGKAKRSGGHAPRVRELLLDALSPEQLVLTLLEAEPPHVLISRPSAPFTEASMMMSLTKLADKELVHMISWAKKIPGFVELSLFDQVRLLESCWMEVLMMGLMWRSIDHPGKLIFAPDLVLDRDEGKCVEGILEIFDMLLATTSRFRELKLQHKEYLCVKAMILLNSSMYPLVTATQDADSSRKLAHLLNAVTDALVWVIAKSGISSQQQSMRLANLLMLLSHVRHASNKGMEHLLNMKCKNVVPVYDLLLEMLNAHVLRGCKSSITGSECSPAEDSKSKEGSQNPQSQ

[12] = cytotoxicity toward NIH3T3 fibroblasts, dose response, counter-screen, cell-based, ATP luminescence, mouse fibroblasts (AID 2010); type: functional;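 note: cells exposed to compound for about 90 hours before reading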
[13] = target: T1, Probable nicotinate-nucleotide adenylyltransferase (Staphylococcus aureus (strain N315), UniProt P65502); type: functional, Staphylococcus aureus subsp. aureus N315; settings: read-out: IC50_Mean;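 for IC50 Mean: confirmatory dose-response retesting of NadD inhibitor hits first found in an ultra-high-throughput screen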
T1 sequence (P65502 whole entry): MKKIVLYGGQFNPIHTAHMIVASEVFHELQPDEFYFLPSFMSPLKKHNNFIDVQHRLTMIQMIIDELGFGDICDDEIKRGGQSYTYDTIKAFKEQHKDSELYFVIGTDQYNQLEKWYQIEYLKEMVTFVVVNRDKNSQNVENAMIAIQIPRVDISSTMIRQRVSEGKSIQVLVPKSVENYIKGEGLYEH

Genome polyprotein = Genome polyprotein (Hepatitis C virus, UniProt Q2Q167); assay: HCV core protein dimerization inhibitors, dose response, biochemical, TR-FRET (AID 2159); design: species or system Hepacivirus hominis;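 note: blocks dimerization of HCV core protein measured by TR-FRET between tagged core106 pairs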
Sequence of Genome polyprotein (Q2Q167 whole entry): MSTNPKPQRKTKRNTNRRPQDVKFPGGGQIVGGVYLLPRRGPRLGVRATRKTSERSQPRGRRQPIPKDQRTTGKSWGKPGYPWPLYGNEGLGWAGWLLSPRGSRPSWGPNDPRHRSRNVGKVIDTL

[14] = target: T1, Probable nicotinate-nucleotide adenylyltransferase; type: functional, Staphylococcus aureus subsp. aureus N315
[15] = inhibitors of intracellular T. cruzi replication, confirmation, NIH3T3 host cells, beta-gal luminescence (AID 2044); type: functional, cell-based;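 note: intracellular parasites grown in NIH/3T3 mouse fibroblasts as host cells; luminescent beta-galactosidase reporter signal from transgenic T. cruzi replicating inside host cells; inhibitors lower the luminescence signal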

CCCNC(=O)N1[C@H](C#N)[C@H](c2ccccc2-c2ccc(OC)cc2)[C@@H]1CO
AC50 [1]: 3.54 µM (active)

CCCOC(C(=O)OC1CCN(C)CC1)(c1ccccc1)c1ccccc1
IC50 [2]: 23.8 µM (inactive)
IC50 [3]: > 40 µM (inactive)

Cc1ccc(S(=O)(=O)Nc2ccc3c(c2)C(=O)N([C@@H](C)CO)C[C@H](C)[C@@H](CN(C)C(=O)Nc2cccc4ccccc24)OCCCC[C@@H](C)O3)cc1
AC50 [4]: 13.3 µM (active)
AC50 [5]: 18.2 µM (active)
AC50 [6]: 22.8 µM (active)
AC50 [7]: 7.25 µM (active)
AC50 (Paired box protein Pax-8): 4.15 µM (active)
AC50 [8]: 8.21 µM (active)
AC50 [9]: 37.3 µM (active)
AC50 [10]: 0.0021 µM (active)

CCCC#Cc1ccc([C@@H]2[C@H](C#N)N(S(=O)(=O)c3cccc(F)c3)[C@H]2CO)cc1
AC50 [4]: 31.9 µM (active)
AC50 [5]: 17 µM (active)
AC50 [6]: 26.9 µM (active)
AC50 [7]: 15.6 µM (active)
AC50 (Paired box protein Pax-8): 5.57 µM (active)
AC50 [8]: 14.2 µM (active)
AC50 [9]: 35.2 µM (active)
AC50 [10]: 63.8 µM (active)

COc1ccc(S(=O)(=O)N(C)C[C@@H]2Oc3ncccc3C(=O)N([C@H](C)CO)C[C@@H]2C)cc1
AC50 [11]: 8.41 µM (active)

CCC(=O)Nc1ccc(C(=O)Cn2nc(C(=O)O)c3ccccc3c2=O)cc1
IC50 (Estrogen receptor beta): 5.09 µM (active)

Cc1ccc(C2CC(c3cccs3)=NN2C(=O)CSc2nc(=O)n3ccc(C)cc3n2)cc1 (centres undefined)
EC50 [12]: > 60 µM (not active)
IC50 [13]: 25.4 µM (active)
IC50 (Genome polyprotein): > 49.8 µM (not active)
IC50 [14]: 5.52 µM (active)
EC50 [15]: 2.54 µM (active)

O=[N+]([O-])c1ccc(Cl)c2c1C1C=CCC1C(c1ccccn1)N2 (centres undefined)
IC50 (Genome polyprotein): > 49.8 µM (not active)

CCNC(=O)[C@H]1[C@H](CO)[C@H]2Cn3c(ccc(/C=C/c4ccccc4)c3=O)[C@@H]1N2C(=O)C1CCCC1
AC50 [11]: 7.81 µM (active)

C[C@H]1CN([C@@H](C)CO)C(=O)c2cccc(NC(=O)c3ccc(-c4nccs4)cc3)c2O[C@@H]1CN(C)C(=O)Nc1ccc(C(F)(F)F)cc1
AC50 [1]: 9.87 µM (active)
